This is an account of results in publication PMC9501377, “New Diarylamine KV10.1 Inhibitors and Their Anticancer Potential” (Pharmaceutics, 2022).

As a reminder, the IC50 is the midpoint of a concentration-inhibition curve. The term inhibition denotes the drop in the measured response relative to a control, in per cent.

Chain of hERG (Q12809 whole entry): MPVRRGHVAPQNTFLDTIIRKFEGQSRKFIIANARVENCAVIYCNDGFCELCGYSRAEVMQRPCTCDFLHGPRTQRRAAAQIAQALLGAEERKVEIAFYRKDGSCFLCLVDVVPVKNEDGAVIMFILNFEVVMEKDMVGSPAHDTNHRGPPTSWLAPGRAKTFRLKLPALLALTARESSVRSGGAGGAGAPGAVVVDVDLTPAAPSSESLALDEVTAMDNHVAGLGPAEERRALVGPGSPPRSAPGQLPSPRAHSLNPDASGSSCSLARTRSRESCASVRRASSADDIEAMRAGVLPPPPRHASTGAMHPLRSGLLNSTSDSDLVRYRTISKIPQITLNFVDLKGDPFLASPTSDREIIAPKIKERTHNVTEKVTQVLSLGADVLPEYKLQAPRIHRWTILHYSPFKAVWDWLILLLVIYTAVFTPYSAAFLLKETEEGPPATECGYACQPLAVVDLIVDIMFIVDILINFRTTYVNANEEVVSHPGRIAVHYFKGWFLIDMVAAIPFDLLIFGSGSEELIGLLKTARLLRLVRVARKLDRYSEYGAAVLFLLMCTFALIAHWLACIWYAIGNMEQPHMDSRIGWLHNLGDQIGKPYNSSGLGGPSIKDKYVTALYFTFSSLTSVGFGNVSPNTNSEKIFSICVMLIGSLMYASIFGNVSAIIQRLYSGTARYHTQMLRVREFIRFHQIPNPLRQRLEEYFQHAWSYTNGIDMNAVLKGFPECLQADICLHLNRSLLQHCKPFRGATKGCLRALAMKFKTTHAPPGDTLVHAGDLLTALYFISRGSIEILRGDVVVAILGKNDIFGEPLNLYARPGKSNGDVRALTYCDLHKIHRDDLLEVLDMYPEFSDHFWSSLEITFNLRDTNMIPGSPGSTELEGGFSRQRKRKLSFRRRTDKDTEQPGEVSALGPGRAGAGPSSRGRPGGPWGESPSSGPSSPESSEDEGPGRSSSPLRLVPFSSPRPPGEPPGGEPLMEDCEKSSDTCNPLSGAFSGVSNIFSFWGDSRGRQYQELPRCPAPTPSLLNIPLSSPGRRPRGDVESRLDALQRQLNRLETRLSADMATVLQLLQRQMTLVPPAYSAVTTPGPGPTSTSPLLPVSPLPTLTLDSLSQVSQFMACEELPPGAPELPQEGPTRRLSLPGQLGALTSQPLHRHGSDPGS

One test has as its target hERG (Homo sapiens, UniProt Q12809). Nature of the test: Whole-cell patch-clamp, hERG inhibition. Type of test: cell-based. Further details: expressed in transfected cells. To be noted: dose–response fit. On the technique in general: In patch-clamp work, channel activity is measured electrically.
Turning to `CN(C)CCOc1ccc(Nc2ccc(C(F)(F)F)cc2[N+](=O)[O-])cc1` [Compound 18a, N-(4-(2-(Dimethylamino)ethoxy)phenyl)-2-nitro-4-(trifluoromethyl)aniline], the IC50 was 177 nM.

The target of a further test is T1, KV10.1 (Eag1) (Homo sapiens, UniProt O95259).
T1 construct: expressed in transfected cells; host or cells: HEK-293 (stably transfected)
T1 sequence (O95259 1-962 isoform O95259-2): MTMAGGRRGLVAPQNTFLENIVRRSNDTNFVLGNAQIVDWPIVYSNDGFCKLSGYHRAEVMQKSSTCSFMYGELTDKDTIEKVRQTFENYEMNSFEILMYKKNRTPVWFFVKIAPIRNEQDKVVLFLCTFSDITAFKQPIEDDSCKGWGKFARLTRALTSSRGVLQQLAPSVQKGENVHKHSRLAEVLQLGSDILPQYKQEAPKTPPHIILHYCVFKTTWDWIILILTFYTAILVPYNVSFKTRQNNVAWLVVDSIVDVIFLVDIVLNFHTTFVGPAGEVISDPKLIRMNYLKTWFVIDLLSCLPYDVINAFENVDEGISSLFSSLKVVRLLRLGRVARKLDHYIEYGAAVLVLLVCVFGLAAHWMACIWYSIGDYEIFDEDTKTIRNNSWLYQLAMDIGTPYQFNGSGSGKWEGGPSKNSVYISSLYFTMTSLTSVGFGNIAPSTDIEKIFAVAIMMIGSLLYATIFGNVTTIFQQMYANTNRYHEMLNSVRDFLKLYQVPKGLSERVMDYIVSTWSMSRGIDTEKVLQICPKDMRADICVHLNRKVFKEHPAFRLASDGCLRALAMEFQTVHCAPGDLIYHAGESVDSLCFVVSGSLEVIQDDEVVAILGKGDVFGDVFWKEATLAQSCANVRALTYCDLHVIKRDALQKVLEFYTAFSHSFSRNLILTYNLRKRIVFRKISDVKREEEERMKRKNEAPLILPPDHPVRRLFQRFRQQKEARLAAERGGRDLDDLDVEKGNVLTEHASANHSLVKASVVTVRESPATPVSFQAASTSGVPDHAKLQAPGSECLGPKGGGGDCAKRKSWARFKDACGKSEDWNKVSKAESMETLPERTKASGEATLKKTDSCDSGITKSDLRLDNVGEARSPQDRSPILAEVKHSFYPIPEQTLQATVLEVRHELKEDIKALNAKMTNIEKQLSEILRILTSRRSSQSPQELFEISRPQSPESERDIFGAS
As to the kind of experiment: Whole-cell patch-clamp on stably transfected HEK-293 cells expressing KV10.1. Format: cell-based. To be noted: 10 μM, HEK-293 cells, patch-clamp, mean ± SEM. The procedure: For whole-cell patch-clamp measurements, stably transfected HEK-293 cells expressing KV10.1 [26, 27, 28] were grown in DMEM with 10% FCS and 300 µg/mL Zeocin on glass coverslips coated with fibronectin. All experiments were conducted at room temperature under perfusion by gravity with extracellular solution (160 mM NaCl, 2.5 mM KCl, 2 mM CaCl2, 1 mM MgCl2, 10 mM Hepes pH 7.4 with NaOH, 8 mM glucose). Pipettes were made from #1 glass capillaries (WPI) and had 1–3 MΩ resistance. The intracellular solution contained 100 mM KCl, 45 mM N-methyl-D-glucamine, 10 mM 1,2-bis(o-aminophenoxy)ethane-N,N,N′,N′-tetraacetic acid (BAPTA), 10 mM Hepes pH 7.35. Stimulation was applied and data were acquired with an EPC10 Plus amplifier (HEKA Elektronik) controlled with Patch Master software. Compounds were applied with an 8-channel fast solution exchanger (ALA). Compounds were prepared to a stock concentration of 10 mM in DMSO. The control solution contained 0.5% DMSO. Stimuli consisted of 500 ms depolarizations to +40 mV.
All electrophysiological data are presented as means ± SEM of n ≥ 3 independent experiments unless otherwise indicated. Oocyte data were analysed using pClamp Clampfit 10.4 (Molecular Devices, Downingtown, PA, USA) and OriginPro 9 (Originlab, Northampton, MA, USA) or GraphPad Prism 8 software (GraphPad Software, Inc., San Diego, CA, USA). Patch-clamp data analysis was performed using FitMaster (HEKA Electronics), IgorPro (Wavemetrics, Inc., Lake Oswego, OR, USA) and GraphPad Prism 9 (GraphPad Software, Inc., San Diego, CA, USA). The Dunnett test and one-way ANOVA were performed to calculate the significance of the induced inhibition compared to the control (p < 0.05).
Consider `O=[N+]([O-])c1cc(C(F)(F)F)ccc1Nc1ccc(OCc2ccccc2)cc1` [Compound 14, N-(4-(Benzyloxy)phenyl)-2-nitro-4-(trifluoromethyl)aniline], for which the “% of Kv10.1 Inhibition at 10 μM (HEK-293 Cells)” value was “inactive”.

Consider “Methyl 2-((4-(2-hydroxy-3-morpholinopropoxy)phenyl)amino)benzoate [Compound 5e]”, for which the “% of Kv10.1 Inhibition at 10 μM (HEK-293 Cells)” value is on record as 12.6 ± 6.4%.

Still in this test, the particulars now being: HEK293; 1 μM, HEK-293 cells, patch-clamp, mean ± SEM.
For the compound `CCN(CC)CCOc1c(Br)cc(Nc2ccc(C(F)(F)F)cc2[N+](=O)[O-])cc1Br` [Compound 17b, 3,5-Dibromo-4-(2-(diethylamino)ethoxy)-N-(2-nitro-4-(trifluoromethyl)phenyl)aniline], the inhibition at 1 µM is 38.2 ± 1.4%.

Turning to `CCN(CC)CCOc1c(Cl)cc(Nc2ccc(C(F)(F)F)cc2[N+](=O)[O-])cc1Cl` [Compound 17c, 3,5-Dichloro-4-(2-(diethylamino)ethoxy)-N-(2-nitro-4-(trifluoromethyl)phenyl)aniline], the inhibition at 1 µM is 66.5 ± 5.5%.

Turning to `CN(C)CCOc1c(Cl)cc(Nc2ccc(C(F)(F)F)cc2[N+](=O)[O-])cc1Cl` [Compound 18c, 3,5-Dichloro-4-(2-(dimethylamino)ethoxy)-N-(2-nitro-4-(trifluoromethyl)phenyl)aniline], the inhibition at 1 µM turned out to be 28.4 ± 12.1%.

Still in this test, the particulars now being: HEK293; 10 μM, HEK-293 cells, patch-clamp, mean ± SEM.
As for `COC(=O)c1ccccc1Oc1ccc(OCC(O)CN2CCOCC2)cc1` (centres unmarked) [Compound 5a, Methyl 2-(4-(2-hydroxy-3-morpholinopropoxy)phenoxy)benzoate], the inhibition at 10 µM is 4.1 ± 2.6%.

Consider `O=[N+]([O-])c1cc(C(F)(F)F)ccc1Oc1ccc(OCC(O)CN2CCOCC2)cc1` (centres unmarked) [Compound 5b, 1-Morpholino-3-(4-(2-nitro-4-(trifluoromethyl)phenoxy)phenoxy)propan-2-ol], for which the inhibition at 10 µM was 2.9 ± 5.3%.

Consider `O=C(Nc1ccc(OCC(O)CN2CCOCC2)cc1)c1ccc(C(F)(F)F)cc1[N+](=O)[O-]` (centres unmarked) [Compound 5c, N-(4-(2-Hydroxy-3-morpholinopropoxy)phenyl)-2-nitro-4-(trifluoromethyl)benzamide], for which the inhibition at 10 µM came out at 7.5 ± 3.5%.

Regarding `COC(=O)c1ccccc1Nc1ccc(OCC(O)CN2CCOCC2)cc1` (centres unmarked) [Compound 5d, Methyl 2-((4-(2-hydroxy-3-morpholinopropoxy)phenyl)amino)benzoate], the inhibition at 10 µM turned out to be 2.7 ± 1.2%.

For the compound `O=[N+]([O-])c1ccc(Nc2ccc(OCC(O)CN3CCOCC3)cc2)c([N+](=O)[O-])c1` (centres unmarked) [Compound 5f, 1-(4-((2,4-Dinitrophenyl)amino)phenoxy)-3-morpholinopropan-2-ol], the inhibition at 10 µM stood at 61.7 ± 9.1%.

`CN(C)CC(O)COc1ccc(Oc2ccc(C(F)(F)F)cc2[N+](=O)[O-])cc1` (centres unmarked) [Compound 6a, 1-(Dimethylamino)-3-(4-(2-nitro-4-(trifluoromethyl)phenoxy)phenoxy)propan-2-ol]: the inhibition at 10 µM was found to be 18.8 ± 4%.

On to `CN(C)CC(O)COc1ccc(NC(=O)c2ccc(C(F)(F)F)cc2[N+](=O)[O-])cc1` (centres unmarked) [Compound 6b, N-(4-(3-(Dimethylamino)-2-hydroxypropoxy)phenyl)-2-nitro-4-(trifluoromethyl)benzamide], for which the inhibition at 10 µM was found to be 1.7 ± 6%.

With `COC(=O)c1cc(C(F)(F)F)ccc1Nc1ccc(OCC(O)CN(C)C)cc1` (centres unmarked) [Compound 6c, Methyl 2-((4-(3-(dimethylamino)-2-hydroxypropoxy)phenyl)amino)-5-(trifluoromethyl)benzoate], the inhibition at 10 µM is 4.2 ± 5.5%.

As to `CN(C)CC(O)COc1ccc(Nc2ccc([N+](=O)[O-])cc2[N+](=O)[O-])cc1` (centres unmarked) [Compound 6d, 1-(Dimethylamino)-3-(4-((2,4-dinitrophenyl)amino)phenoxy)propan-2-ol], the inhibition at 10 µM was determined as 61.9 ± 9%.

As for `O=C(O)c1ccccc1Nc1ccc(OCC(O)CN2CCOCC2)cc1` (centres unmarked) [Compound 10a, 2-((4-(2-Hydroxy-3-morpholinopropoxy)phenyl)amino)benzoic acid], the inhibition at 10 µM was 5.8 ± 5.3%.

`CN(C)CC(O)COc1ccc(Nc2ccc(C(F)(F)F)cc2C(=O)O)cc1` (centres unmarked) [Compound 10b, 2-((4-(3-(Dimethylamino)-2-hydroxypropoxy)phenyl)amino)-5-(trifluoromethyl)benzoic acid]: the inhibition at 10 µM is -2.1 ± 5.7%.

Consider `O=[N+]([O-])c1cc(C(F)(F)F)ccc1Nc1ccc(OCCN2CCOCC2)cc1` [Compound 13, N-(4-(2-Morpholinoethoxy)phenyl)-2-nitro-4-(trifluoromethyl)aniline], for which the inhibition at 10 µM came to 62.4 ± 3.9%.

Turning to `O=[N+]([O-])c1cc(C(F)(F)F)ccc1Nc1ccc(OCc2ccccc2)cc1` [Compound 14, N-(4-(Benzyloxy)phenyl)-2-nitro-4-(trifluoromethyl)aniline], the inhibition at 10 µM was found to be 3.3 ± 1.7%.

With `CNCC(O)COc1ccc(Nc2ccc(C(F)(F)F)cc2[N+](=O)[O-])cc1` (centres unmarked) [Compound 15, 1-(Methylamino)-3-(4-((2-nitro-4-(trifluoromethyl)phenyl)amino)phenoxy)propan-2-ol], the inhibition at 10 µM worked out at 66.6 ± 4.3%.

Consider `CN(C)CCOc1ccc(Nc2ccc(C(F)(F)F)cc2[N+](=O)[O-])cc1` [Compound 18a, N-(4-(2-(Dimethylamino)ethoxy)phenyl)-2-nitro-4-(trifluoromethyl)aniline], for which the inhibition at 10 µM is 81.4 ± 5.6%.

With `O=[N+]([O-])c1cc(C(F)(F)F)ccc1Nc1ccc(OCCN2CCCC2)cc1` [Compound 19, 2-Nitro-N-(4-(2-(pyrrolidin-1-yl)ethoxy)phenyl)-4-(trifluoromethyl)aniline], the inhibition at 10 µM turned out to be 68.4 ± 14.8%.

For the compound `O=[N+]([O-])c1cc(C(F)(F)F)ccc1Nc1ccc(OCCN2CCCCC2)cc1` [Compound 20, 2-Nitro-N-(4-(2-(piperidin-1-yl)ethoxy)phenyl)-4-(trifluoromethyl)aniline], the inhibition at 10 µM turned out to be 65 ± 6%.

As to `O=[N+]([O-])c1cc(C(F)(F)F)ccc1Nc1ccc(OCCN2CCCCCC2)cc1` [Compound 21, N-(4-(2-(Azepan-1-yl)ethoxy)phenyl)-2-nitro-4-(trifluoromethyl)aniline], the inhibition at 10 µM is 71 ± 4.12%.

The test is the same for the next values; noted with them: HEK293; 50 μM, HEK-293 cells, patch-clamp, mean ± SEM.
For `O=C(Cc1ccc(Cl)c(Cl)c1)NC1CCN(CC(O)COc2ccc(Nc3ccc(C(F)(F)F)cc3[N+](=O)[O-])cc2)CC1` (centres unmarked) [Compound 16d, 2-(3,4-Dichlorophenyl)-N-(1-(2-hydroxy-3-(4-((2-nitro-4-(trifluoromethyl)phenyl)amino)phenoxy)propyl)piperidin-4-yl)acetamide], the inhibition at 50 µM came to 21.8 ± 4.4%.

Staying with this test, now noted: whole-cell patch-clamp, dose–response fit.
On to `CN(C)CCOc1ccc(Nc2ccc(C(F)(F)F)cc2[N+](=O)[O-])cc1` [Compound 18a, N-(4-(2-(Dimethylamino)ethoxy)phenyl)-2-nitro-4-(trifluoromethyl)aniline], for which the IC50 amounted to 892 nM.
